Data as given in US20130244879A1, “USE OF LIPO-CHITOOLIGOSACCHARIDES TO INITIATE EARLY FLOWERING AND FRUIT DEVELOPMENT IN PLANTS AND RELATED METHODS AND COMPOSITIONS” (NOVOZYMES BIOLOGICALS HOLDING A/S, priority 2003, published 2013).

How the values were obtained:
Arabidopsis thaliana = assay: Experiments 3 and 4: effect of LCO on flowering in Arabidopsis thaliana; type: in vivo; conditions: vs surfactant treated plants
Method: Two experiments were performed to investigate effect of LCO on plant's flowering using experimental model plant Arabidopsis thaliana. Plants were treated with various a range of LCO concentrations. […] The LCO treated plants reached over 80% of plants with open flowers 4 days earlier than control, surfactant treated plants. LCO induced faster and more uniform flowering.

Cobra tomatoes = assay: Trial 2: LCO dose and timing on greenhouse tomato (Cobra); type: in vivo
Method: The Cobra variety was used to re-examine optimal doses of LCO. The concentrations tested were 50 ng and 75 ng LCO per plant, applied once (2 weeks after transplanting) and twice (4 weeks after transplanting). The sample number was increased to 20 plants.

hot pepper = assay: Experiment 17: effect of LCO on hot pepper flowering and fruiting; type: in vivo; conditions: for increased early flowers over control: at 5 weeks; for increased number of early fruits over control: in 5 weeks
Method: 30-day old seedlings were transplanted into 5″ pots and 20 days later (20 DAT) plants received the first LCO spray at 2 ml/plant (50 ng/plant). The 2nd spray was conducted 3 weeks (41 DAT) after the first. Data was collected 5 weeks (55 DAT) after the first LCO application. […]

Cherry tomato = assay: Experiment 14: LCO soil application on cherry tomatoes; type: in vivo
Method: Cherry tomato seedlings (5-week old) were transplanted into 5″ pots in the greenhouse. LCO solutions were prepared with water and 50 ml/plant was applied to the soil in the pot after transplantation. Ripened fruit (orange or red) were collected 8 weeks after transplantation.

tomato crop = assay: Trial 3: summer field trial, foliar LCO on tomato yield; type: in vivo; conditions: for advanced fruiting over control: single application
Method: An investigation was conducted to examine whether foliar applications of LCO led to increased yield in tomato crop production. To determine concentrations or strengths to be applicable, testing was conducted with a logarithmic increase in strength from 1 nanogram (ng) to 1000 ng/plant sprayed once, and on half, twice. The trial results are presented in the following FIGS. 11-13 and Tables 6 and 7. The parameter of interest was ripened fruit which was harvested 2 or 3 times a week, recording each time, both fruit weight and number of fruit per set of replicates. It was known that fruit arise from pollinated flowers and that an increase in the one leads to the other. FIG. 11 records, cumulative harvested (red) fruit per treatment. For the single LCO application it will be seen that the 10 and 100 ng/plant treatments have advanced fruiting by some 10 days over control (horizontal separation in weeks). That advance has allowed the plant to bear and ripen more fruit over the season for these treatments (see FIG. 11 note height over control and Tables 6 and 7 for actual weights and numbers harvested). Table 6 and FIG. 12 record harvested weight and numbers of ripened fruit over season and it can be seen that the average weight of the tomatoes is not different between treatments and control. Thus the increase in harvested weight was due to an increase in numbers harvested, in agreement with actual enumeration.

greenhouse tomatoes = assay: Experiment 11: LCO foliar application in greenhouse tomatoes; type: in vivo, tomato; conditions: 28 days after transplant
Method: Tomatoes were seeded and transplanted into 10″ pots 30 days later in the greenhouse. Plants were sprayed with 5 ml (50 ng) LCO solution per plant 10 days after transplant and 14 days after transplant (50 ng×2). Flowering data was collected 28 days after transplant. The same plants as FIG. 2-1 were sampled for fruit data 28 days after transplant.

[1] = 1 ng LCO per plant, applied once
[2] = 1 ng LCO per plant, applied twice
[3] = 10 ng LCO per plant, applied once
[4] = 10 ng LCO per plant, applied twice
[5] = 100 ng LCO per plant, applied once
[6] = 100 ng LCO per plant, applied twice
[7] = 1000 ng LCO per plant, applied once
[8] = 1000 ng LCO per plant, applied twice
[9] = single application of 10 ng LCO/plant

Lipo-chitooligosaccharides [LCO] was tested, and the “reached over 80% of plants with open flowers earlier than control” value (Arabidopsis thaliana) was 4 days, the “advance in flowering (attaining same flower number as control)” value (Cobra tomatoes; 50 ng treatment) was roughly 3 days and the “advance of equivalent fruit numbers over control” value (Cobra tomatoes; 50 ng/plant application twice) was 2 weeks. For the same substance, the “Flower Number/Plant” value (Cobra tomatoes; LCO 50 ng once, April 4) was 32.45, the “Fruit Number/Plant” value (Cobra tomatoes; LCO 50 ng once, April 4) was 1.3 b and the “Flower Number/Plant” value (Cobra tomatoes; LCO 50 ng once, Feb. 28) was 0.0 b. For the same substance, the “Flower Number/Plant” value (Cobra tomatoes; LCO 50 ng once, Mar. 7) was 2.5 ab, the “Flower Number/Plant” value (Cobra tomatoes; LCO 50 ng once, Mar. 14) was 7.4 ab and the “Fruit Number/Plant” value (Cobra tomatoes; LCO 50 ng once, Mar. 14) was 0.05 b. For the same substance, the “Flower Number/Plant” value (Cobra tomatoes; LCO 50 ng once, Mar. 21) was 14.55, the Fruit Number/Plant (Cobra tomatoes; LCO 50 ng once, Mar. 21) was 0.25 and the “Flower Number/Plant” value (Cobra tomatoes; LCO 50 ng once, Mar. 28) was 23.95. The “Fruit Number/Plant” value (Cobra tomatoes; LCO 50 ng once, Mar. 28) was 0.525 c, the “Flower Number/Plant” value (Cobra tomatoes; LCO 50 ng twice, April 4) was 32.2 and the “Fruit Number/Plant” value (Cobra tomatoes; LCO 50 ng twice, April 4) was 2.5 a. For the same substance, the “Flower Number/Plant” value (Cobra tomatoes; LCO 50 ng twice, Feb. 28) was 0.2 a, the “Flower Number/Plant” value (Cobra tomatoes; LCO 50 ng twice, Mar. 7) was 3.2 a and the “Flower Number/Plant” value (Cobra tomatoes; LCO 50 ng twice, Mar. 14) was 8.4 a. For the same substance, the “Fruit Number/Plant” value (Cobra tomatoes; LCO 50 ng twice, Mar. 14) was 0.75 a, the “Flower Number/Plant” value (Cobra tomatoes; LCO 50 ng twice, Mar. 21) was 16.0 and the “Fruit Number/Plant” value (Cobra tomatoes; LCO 50 ng twice, Mar. 21) was 1.8 a. The “Flower Number/Plant” value (Cobra tomatoes; LCO 50 ng twice, Mar. 28) was 25.15, the “Fruit Number/Plant” value (Cobra tomatoes; LCO 50 ng twice, Mar. 28) was 2.025 a and the “Flower Number/Plant” value (Cobra tomatoes; LCO 75 ng once, April 4) was 28.0. The “Fruit Number/Plant” value (Cobra tomatoes; LCO 75 ng once, April 4) was 1.45 b, the “Flower Number/Plant” value (Cobra tomatoes; LCO 75 ng once, Feb. 28) was 0.0 b and the “Flower Number/Plant” value (Cobra tomatoes; LCO 75 ng once, Mar. 7) was 2.85 ab. For the same substance, the “Flower Number/Plant” value (Cobra tomatoes; LCO 75 ng once, Mar. 14) was 7.35 ab, the “Fruit Number/Plant” value (Cobra tomatoes; LCO 75 ng once, Mar. 14) was 0.45 ab and the “Flower Number/Plant” value (Cobra tomatoes; LCO 75 ng once, Mar. 21) was 14.2. The “Fruit Number/Plant” value (Cobra tomatoes; LCO 75 ng once, Mar. 21) was 0.9 bc, the “Flower Number/Plant” value (Cobra tomatoes; LCO 75 ng once, Mar. 28) was 21.4 and the “Fruit Number/Plant” value (Cobra tomatoes; LCO 75 ng once, Mar. 28) was 1.15 bc. For the same substance, the “Flower Number/Plant” value (Cobra tomatoes; LCO 75 ng twice, April 4) was 31.0, the “Fruit Number/Plant” value (Cobra tomatoes; LCO 75 ng twice, April 4) was 1.9 ab and the “Flower Number/Plant” value (Cobra tomatoes; LCO 75 ng twice, Feb. 28) was 0.0 b. For the same substance, the “Flower Number/Plant” value (Cobra tomatoes; LCO 75 ng twice, Mar. 7) was 3.25 a, the “Flower Number/Plant” value (Cobra tomatoes; LCO 75 ng twice, Mar. 14) was 7.35 ab and the “Fruit Number/Plant” value (Cobra tomatoes; LCO 75 ng twice, Mar. 14) was 0.6 ab. The “Flower Number/Plant” value (Cobra tomatoes; LCO 75 ng twice, Mar. 21) was 15.4, the “Fruit Number/Plant” value (Cobra tomatoes; LCO 75 ng twice, Mar. 21) was 1.0 b and the “Flower Number/Plant” value (Cobra tomatoes; LCO 75 ng twice, Mar. 28) was 23.35. For the same substance, the “Fruit Number/Plant” value (Cobra tomatoes; LCO 75 ng twice, Mar. 28) was 1.325 ab, the “increased early flowers over control” value (hot pepper; double applications) was no more than 40% and the “increased number of early fruits over control” value (hot pepper; double applications) was no more than 284%. For the same substance, the “increased early flowers over control” value (hot pepper; single application) was “up to 5%”, the “increased number of early fruits over control” value (hot pepper; single application) was “up to 159%” and the “dose with best fruit enhancement at the early stage” value (Cherry tomato) was 10 ng per plant. For the same substance, the “Increase in No. of Tomatoes from 1 to 2 applications” value (shortened to “Increase in No. of Tomatoes”) (tomato crop; 1 ng LCO per plant) was 21, the “Yield Increase for 2nd Application” value (tomato crop; 1 ng LCO per plant) was 0.00 Kg per plant and the “Cumulative Harvest to Sept 23. (24 plant Average)” value (“Cumulative Harvest” for short) (tomato crop; [1]) was “Not as good as Control”. For the same substance, the “Cumulative Yield (kg) to Sept 23. Total weight for 24 plants” value (“Cumulative Yield (kg)” for short) (tomato crop; [1]) was 57.7200 kg, the “Total No. of Tomatoes per treatment” value (tomato crop; [1]) was 300 and the “Yield increase over Control” value (tomato crop; [1]) was 0.0000 Kg per plant. For the same substance, the “Cumulative Harvest” value (tomato crop; [2]) was “Not as good as Control”, the “Cumulative Yield (kg)” value (tomato crop; [2]) was 63.8760 kg and the “Total No. of Tomatoes per treatment” value (tomato crop; [2]) was 321. For the same substance, the “Increase in No. of Tomatoes” value (tomato crop; 10 ng LCO per plant) was 11, the “Yield Increase for 2nd Application” value (tomato crop; 10 ng LCO per plant) was 0.08 Kg per plant and the “Cumulative Harvest” value (tomato crop; [3]) was 3.0093 Kg per plant. The “Cumulative Yield (kg)” value (tomato crop; [3]) was 72.2240 kg, the “Percent Yield inc. over Control” value (tomato crop; [3]) was 17.7% and the “Total No. of Tomatoes per treatment” value (tomato crop; [3]) was 363. The “Yield increase over Control” value (tomato crop; [3]) was 0.4517 Kg per plant, the “Cumulative Harvest” value (tomato crop; [4]) was 3.0905 Kg per plant and the “Cumulative Yield (kg)” value (tomato crop; [4]) was 74.1720 kg. For the same substance, the “Percent Yield inc. over Control” value (tomato crop; [4]) was 12.6%, the “Total No. of Tomatoes per treatment” value (tomato crop; [4]) was 374 and the “Yield increase over Control” value (tomato crop; [4]) was 0.3452 Kg per plant. For the same substance, the “Increase in No. of Tomatoes” value (tomato crop; 100 ng LCO per plant) was −8, the “Yield Increase for 2nd Application” value (tomato crop; 100 ng LCO per plant) was 0.06 Kg per plant and the “Cumulative Harvest” value (tomato crop; [5]) was 2.7280 Kg per plant. For the same substance, the “Cumulative Yield (kg)” value (tomato crop; [5]) was 65.4720 kg, the “Percent Yield inc. over Control” value (tomato crop; [5]) was 6.7% and the “Total No. of Tomatoes per treatment” value (tomato crop; [5]) was 351. For the same substance, the “Yield increase over Control” value (tomato crop; [5]) was 0.1703 Kg per plant, the “Cumulative Harvest” value (tomato crop; [6]) was 2.7917 Kg per plant and the “Cumulative Yield (kg)” value (tomato crop; [6]) was 67.0000 kg. For the same substance, the “Percent Yield inc. over Control” value (tomato crop; [6]) was 1.7%, the “Total No. of Tomatoes per treatment” value (tomato crop; [6]) was 343 and the “Yield increase over Control” value (tomato crop; [6]) was 0.0463 Kg per plant. The “Increase in No. of Tomatoes” value (tomato crop; 1000 ng LCO per plant) was 35, the “Yield Increase for 2nd Application” value (tomato crop; 1000 ng LCO per plant) was 0.35 Kg per plant and the “Cumulative Harvest” value (tomato crop; [7]) was 2.6115 Kg per plant. The “Cumulative Yield (kg)” value (tomato crop; [7]) was 62.6760 kg, the “Percent Yield inc. over Control” value (tomato crop; [7]) was 2.1% and the “Total No. of Tomatoes per treatment” value (tomato crop; [7]) was 326. For the same substance, the “Yield increase over Control” value (tomato crop; [7]) was 0.0538 Kg per plant, the “Cumulative Harvest” value (tomato crop; [8]) was 2.9588 Kg per plant and the “Cumulative Yield (kg)” value (tomato crop; [8]) was 71.0120 kg. The “Percent Yield inc. over Control” value (tomato crop; [8]) was 7.8%, the “Total No. of Tomatoes per treatment” value (tomato crop; [8]) was 361 and the “Yield increase over Control” value (tomato crop; [8]) was 0.2135 Kg per plant. For the same substance, the “increase in numbers of tomatoes” value (tomato crop; [9]) was roughly 20%, the “yield increase over the season” value (tomato crop; [9]) was 17% and the “advanced fruiting over control” value (tomato crop; 10 ng/plant) was roughly 10 days. The “advanced fruiting over control” value (tomato crop; 100 ng/plant) was roughly 10 days, the tomato early flowering (greenhouse tomatoes; 50 ng/plant single or double) was “improved tomato early flowering” and the increased fruit set (greenhouse tomatoes; single 50 ng LCO application) was “approx. 1 fruit/plant”.
